{"source": "ChEMBL document CHEMBL1201862", "about": "“PubChem BioAssay data set” (2004)", "key": {"Aminopeptidase N": {"biological_target": "T1, Aminopeptidase N (Plasmodium falciparum FcB1/Columbia, UniProt O96935)", "T1 sequence (O96935 whole entry)": "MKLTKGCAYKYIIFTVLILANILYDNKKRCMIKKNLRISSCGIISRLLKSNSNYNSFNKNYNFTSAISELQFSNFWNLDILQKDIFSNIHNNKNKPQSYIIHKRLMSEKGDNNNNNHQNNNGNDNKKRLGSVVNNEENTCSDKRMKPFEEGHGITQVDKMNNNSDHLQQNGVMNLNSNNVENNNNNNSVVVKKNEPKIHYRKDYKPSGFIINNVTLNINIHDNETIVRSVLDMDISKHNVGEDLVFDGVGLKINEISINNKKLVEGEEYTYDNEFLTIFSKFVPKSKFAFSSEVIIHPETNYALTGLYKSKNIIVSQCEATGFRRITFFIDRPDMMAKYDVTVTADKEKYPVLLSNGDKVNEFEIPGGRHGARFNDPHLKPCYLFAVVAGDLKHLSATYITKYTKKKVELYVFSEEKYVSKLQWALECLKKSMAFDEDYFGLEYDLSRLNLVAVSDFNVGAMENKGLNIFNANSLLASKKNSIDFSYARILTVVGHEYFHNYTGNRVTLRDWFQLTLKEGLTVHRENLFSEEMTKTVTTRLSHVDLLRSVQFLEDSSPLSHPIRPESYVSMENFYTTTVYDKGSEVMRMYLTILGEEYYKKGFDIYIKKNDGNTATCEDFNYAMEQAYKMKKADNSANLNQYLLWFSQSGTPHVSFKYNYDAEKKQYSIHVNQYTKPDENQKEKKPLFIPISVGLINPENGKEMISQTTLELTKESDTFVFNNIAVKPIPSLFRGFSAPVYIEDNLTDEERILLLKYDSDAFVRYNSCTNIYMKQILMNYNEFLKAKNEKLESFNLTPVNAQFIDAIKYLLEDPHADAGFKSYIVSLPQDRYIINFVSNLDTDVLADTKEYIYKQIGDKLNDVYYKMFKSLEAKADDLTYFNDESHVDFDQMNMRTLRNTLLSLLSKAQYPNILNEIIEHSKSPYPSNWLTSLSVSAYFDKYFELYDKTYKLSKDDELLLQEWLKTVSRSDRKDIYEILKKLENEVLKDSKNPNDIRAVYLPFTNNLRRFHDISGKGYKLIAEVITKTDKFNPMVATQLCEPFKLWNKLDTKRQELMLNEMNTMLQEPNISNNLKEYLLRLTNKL", "experiment": "malaria alanyl aminopeptidase activity blockers – biochemical, fluorogenic H-Leu-NHMec substrate, 1536-well (AID 1445)", "parameters": "species or system Plasmodium falciparum 3D7, 3D7"}, "Genome polyprotein": {"biological_target": "Genome polyprotein (dengue virus type 2, UniProt P29990)", "sequence (P29990 2492-3391 limits assumed)": "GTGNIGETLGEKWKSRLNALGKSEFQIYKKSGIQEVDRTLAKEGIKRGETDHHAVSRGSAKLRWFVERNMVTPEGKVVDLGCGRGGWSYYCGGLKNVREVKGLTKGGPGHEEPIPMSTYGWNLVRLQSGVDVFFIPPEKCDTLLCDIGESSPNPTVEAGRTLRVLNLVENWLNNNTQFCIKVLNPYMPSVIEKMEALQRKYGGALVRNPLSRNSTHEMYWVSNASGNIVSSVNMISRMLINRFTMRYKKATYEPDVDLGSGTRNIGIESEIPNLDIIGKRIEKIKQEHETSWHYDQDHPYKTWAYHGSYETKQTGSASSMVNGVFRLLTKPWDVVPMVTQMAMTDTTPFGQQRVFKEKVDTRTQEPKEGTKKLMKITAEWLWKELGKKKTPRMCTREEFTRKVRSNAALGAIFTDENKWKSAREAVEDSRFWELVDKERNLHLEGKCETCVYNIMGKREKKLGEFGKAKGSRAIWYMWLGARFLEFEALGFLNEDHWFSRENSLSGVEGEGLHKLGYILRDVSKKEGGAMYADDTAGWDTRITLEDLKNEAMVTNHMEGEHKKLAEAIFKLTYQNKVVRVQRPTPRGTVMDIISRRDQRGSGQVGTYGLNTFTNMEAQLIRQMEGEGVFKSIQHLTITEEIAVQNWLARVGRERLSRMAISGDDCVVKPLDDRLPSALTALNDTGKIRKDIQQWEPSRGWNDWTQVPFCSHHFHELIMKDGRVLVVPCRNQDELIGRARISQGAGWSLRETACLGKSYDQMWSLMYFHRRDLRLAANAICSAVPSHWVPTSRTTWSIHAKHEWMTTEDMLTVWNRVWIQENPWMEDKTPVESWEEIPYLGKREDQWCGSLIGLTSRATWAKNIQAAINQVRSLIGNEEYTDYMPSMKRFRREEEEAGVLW", "experiment": "flavivirus cap methylation enzyme inhibition – biochemical, confirmation dose response, primary screen (AID 588689)", "type": "functional"}, "[1]": {"biological_target": "T2, Short transient receptor potential channel 4 (Mus musculus, UniProt Q9QUQ5)", "T2 sequence (Q9QUQ5 whole entry)": "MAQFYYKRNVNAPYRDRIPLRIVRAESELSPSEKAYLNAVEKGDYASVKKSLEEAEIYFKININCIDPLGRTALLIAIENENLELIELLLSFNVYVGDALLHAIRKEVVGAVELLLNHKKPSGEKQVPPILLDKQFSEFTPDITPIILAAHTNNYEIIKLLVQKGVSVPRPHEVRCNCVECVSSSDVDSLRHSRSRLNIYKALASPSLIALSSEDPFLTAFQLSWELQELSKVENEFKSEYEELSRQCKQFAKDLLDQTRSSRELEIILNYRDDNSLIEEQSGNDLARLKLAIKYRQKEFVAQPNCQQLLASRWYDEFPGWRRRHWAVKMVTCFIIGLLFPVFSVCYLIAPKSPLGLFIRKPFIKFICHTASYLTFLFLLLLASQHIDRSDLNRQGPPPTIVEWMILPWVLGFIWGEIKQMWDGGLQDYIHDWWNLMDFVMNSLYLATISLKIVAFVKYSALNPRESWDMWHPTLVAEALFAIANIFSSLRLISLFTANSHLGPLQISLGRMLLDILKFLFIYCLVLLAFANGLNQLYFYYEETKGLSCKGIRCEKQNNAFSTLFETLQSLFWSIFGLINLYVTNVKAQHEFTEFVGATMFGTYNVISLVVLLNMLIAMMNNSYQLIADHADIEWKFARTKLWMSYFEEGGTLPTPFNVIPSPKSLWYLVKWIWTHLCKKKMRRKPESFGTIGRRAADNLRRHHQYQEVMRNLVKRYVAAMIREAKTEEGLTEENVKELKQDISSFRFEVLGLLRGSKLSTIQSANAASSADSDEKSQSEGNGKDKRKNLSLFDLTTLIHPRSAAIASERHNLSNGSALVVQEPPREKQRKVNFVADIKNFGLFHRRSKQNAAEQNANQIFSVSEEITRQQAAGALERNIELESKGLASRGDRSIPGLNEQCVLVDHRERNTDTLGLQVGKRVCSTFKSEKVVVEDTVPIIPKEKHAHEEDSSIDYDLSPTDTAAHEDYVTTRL", "experiment": "block of DAMGO-driven TRPC4 calcium entry – cell-based, HEK293 TRPC4/mu-opioid, Fluo-4 calcium, dose response (AID 434942)", "type": "functional"}, "[2]": {"biological_target": "T2, Short transient receptor potential channel 4", "experiment": "calcium entry via TRPC4 opening agents – cell-based, HEK293 TRPC4/mu-opioid, Fluo-4 calcium, dose response (AID 434937)", "type": "functional"}, "Beta-galactosidase": {"biological_target": "Beta-galactosidase (Escherichia coli, UniProt Q8VNN2)", "sequence (Q8VNN2 whole entry)": "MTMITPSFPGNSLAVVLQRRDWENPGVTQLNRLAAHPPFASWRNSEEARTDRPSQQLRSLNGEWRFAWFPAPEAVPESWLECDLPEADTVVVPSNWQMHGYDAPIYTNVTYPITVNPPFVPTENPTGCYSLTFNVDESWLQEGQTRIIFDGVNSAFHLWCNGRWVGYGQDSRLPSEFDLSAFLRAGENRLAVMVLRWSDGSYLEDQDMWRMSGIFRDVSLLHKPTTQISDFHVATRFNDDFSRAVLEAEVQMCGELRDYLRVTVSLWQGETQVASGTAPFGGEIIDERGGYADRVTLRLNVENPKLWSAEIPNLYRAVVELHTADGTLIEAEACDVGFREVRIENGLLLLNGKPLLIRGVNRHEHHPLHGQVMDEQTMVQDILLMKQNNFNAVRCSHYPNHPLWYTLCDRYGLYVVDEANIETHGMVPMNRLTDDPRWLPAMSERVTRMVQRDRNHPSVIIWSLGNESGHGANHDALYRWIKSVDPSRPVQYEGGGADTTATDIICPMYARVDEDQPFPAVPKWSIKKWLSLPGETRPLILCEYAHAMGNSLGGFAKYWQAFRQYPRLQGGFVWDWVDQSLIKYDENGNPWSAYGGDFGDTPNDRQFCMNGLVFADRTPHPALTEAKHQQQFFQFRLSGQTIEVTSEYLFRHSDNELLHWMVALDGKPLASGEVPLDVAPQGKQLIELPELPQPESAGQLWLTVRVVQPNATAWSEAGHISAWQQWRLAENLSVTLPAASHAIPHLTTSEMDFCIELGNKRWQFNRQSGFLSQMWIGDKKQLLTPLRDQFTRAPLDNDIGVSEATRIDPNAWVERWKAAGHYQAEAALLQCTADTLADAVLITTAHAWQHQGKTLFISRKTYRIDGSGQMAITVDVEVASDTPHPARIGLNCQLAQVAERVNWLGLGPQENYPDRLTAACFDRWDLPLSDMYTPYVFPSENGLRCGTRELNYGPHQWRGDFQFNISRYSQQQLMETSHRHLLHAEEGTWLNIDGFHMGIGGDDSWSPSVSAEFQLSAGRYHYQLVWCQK", "experiment": "detection-enzyme interference by beta-gal modulators – biochemical, E. coli enzyme, set 3, artefact control for CCR6 antagonist project, dose response (AID 504712)", "type": "functional"}, "[3]": {"experiment": "A Cell Based Secondary Assay To Explore Cytotoxicity of Compounds that Sensitize Mycobacterium Tuberculosis to Beta-Lactam Antibiotics.", "type": "functional"}, "[4]": {"experiment": "Dd2 parasite growth inhibition in erythrocytes – SYBR Green, dry powder samples, set 9, dose response (AID 1159568)", "type": "functional, cell-based"}, "[5]": {"experiment": "growth inhibition of yeast DHODH-expressing 3D7 parasites – SYBR Green, dry powder samples, dose response (AID 1159570);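 also: parasite growth measured after 72 hours of compound exposure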", "type": "functional, cell-based"}, "[6]": {"experiment": "P. falciparum Dd2 growth inhibitors, dose response, SYBR Green, cherry-picked samples (AID 1159567)", "type": "functional, cell-based"}, "[7]": {"experiment": "Dd2 malaria parasite growth inhibition potency – SYBR Green, dry powder samples, dose response (AID 1159566);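 also: potency for growth inhibition with lower SYBR green DNA signal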", "type": "functional, cell-based"}, "[8]": {"experiment": "toxicity to human hepatoma HepG2 cells – cell-based, cherry-picked samples, cytotoxicity control, dose response (AID 1159577)", "type": "functional"}, "[9]": {"experiment": "growth inhibition of PfATP4-mutant resistant parasites – NITD609-resistant line, SYBR Green, dry powder, dose response (AID 1159571);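 also: parasites synchronized at ring stage by sorbitol before testing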", "type": "functional, cell-based"}}, "note": "The source made the active and inactive calls."}
{"smiles": "O=C1/C(=C/c2nc3ccccc3[nH]2)SC(=S)N1NS(=O)(=O)c1ccccc1", "values": [{"measurement": "IC50", "setting": "Aminopeptidase N", "result": "23.7 µM (active)"}, {"measurement": "IC50", "setting": "Genome polyprotein", "result": "54.7 µM (active)"}]}
{"smiles": "NC(=O)c1nsc(C(=O)N(Cc2ccccc2Cl)C(C(=O)NCC2CCCO2)c2ccc(O)cc2)c1N", "note": "(stereo not drawn)", "values": [{"measurement": "EC50", "setting": "[1]", "result": "5.96 µM (active)"}]}
{"smiles": "COc1ccc(C(CNC(=O)Cc2ccc3ccccc3c2)N(C)C)cc1", "note": "(stereo not drawn)", "values": [{"measurement": "EC50", "setting": "[1]", "result": "0.0533 µM (active)"}, {"measurement": "EC50", "setting": "[2]", "result": "0.668 µM (active)"}]}
{"smiles": "Oc1c(/C=N/Cc2ccncc2)sc2ccccc12", "values": [{"measurement": "IC50", "setting": "Beta-galactosidase", "result": "> 66.6 µM (inactive)"}]}
{"smiles": "CC1=NN(c2ccccc2)C(=O)C1/C=N/c1ccccc1O", "note": "(stereo not drawn)", "values": [{"measurement": "IC50", "setting": "Aminopeptidase N", "result": "12.8 µM (active)"}, {"measurement": "CC50", "setting": "[3]", "result": "> 40 µM (active)"}]}
{"smiles": "O=C(Nc1ccc2c(c1)[C@@H]1C[C@@H](CC(=O)N3CCc4ccccc4C3)O[C@@H](CO)[C@@H]1O2)c1ccc2c(c1)OCO2", "values": [{"measurement": "AC50", "setting": "[4]", "result": "13 µM (active)"}]}
{"smiles": "Cc1nc(N2[C@H](CO)[C@H](c3ccccc3)[C@H]2CNCC2CCCC2)sc1C", "values": [{"measurement": "AC50", "setting": "[5]", "result": "1.4 µM (active)"}, {"measurement": "AC50", "setting": "[6]", "result": "2.26 µM (active)"}, {"measurement": "AC50", "setting": "[7]", "result": "1.12 µM (active)"}, {"measurement": "AC50", "setting": "[8]", "result": "> 39 µM (inactive)"}, {"measurement": "AC50", "setting": "[9]", "result": "1.42 µM (active)"}]}
{"smiles": "COc1ccccc1NC(=O)N1C[C@@H]2N[C@H](C1)[C@H]2c1ccc(/C=C/c2ccccc2)cc1", "values": [{"measurement": "AC50", "setting": "[4]", "result": "4.56 µM (active)"}, {"measurement": "AC50", "setting": "[6]", "result": "3.04 µM (active)"}]}
{"smiles": "N#Cc1cccc(-c2ccc([C@@H]3[C@@H]4CN(Cc5ccccc5)C[C@H]3N4)cc2)c1", "values": [{"measurement": "AC50", "setting": "[6]", "result": "5.57 µM (active)"}, {"measurement": "AC50", "setting": "[8]", "result": "15.4 µM (active)"}]}
{"smiles": "C[C@H](CO)N1C[C@H](C)[C@H](CN(C)Cc2ccc(-c3ccccc3)cc2)OCc2ccccc2-c2ccccc2C1=O", "values": [{"measurement": "AC50", "setting": "[6]", "result": "5.19 µM (active)"}, {"measurement": "AC50", "setting": "[8]", "result": "> 39 µM (inactive)"}]}
{"smiles": "O=C(Nc1ccc(Cl)cc1)N1C[C@@H]2[C@H](c3ccccc31)[C@@H](CO)N2CC1CCCCC1", "values": [{"measurement": "AC50", "setting": "[4]", "result": "5.79 µM (active)"}]}
{"smiles": "CO[C@H]1CN(C)C(=O)c2cc(NC(=O)c3cccc(F)c3)ccc2OC[C@H](C)N(C)C[C@H]1C", "values": [{"measurement": "AC50", "setting": "[4]", "result": "22.8 µM (active)"}]}
{"smiles": "O=C1C=CC(=O)N1", "values": [{"measurement": "IC50", "setting": "Beta-galactosidase", "result": "> 66.6 µM (inactive)"}]}
